This is an account of results in US9386766B2, “Insect attractant compositions” (University of Greenwich, priority 2009, dated 2016).

In assay [1] the test system is H. armigera. Put plainly: Field trials in India and Bangladesh: floral bait trap catches, Trials 1-5 (Example 2). It counts as in vivo, Helicoverpa armigera. The settings on record: Trial 1; Jessore; Country bean.
The test system of another assay is All Lepidoptera. As to the kind of experiment: Field trials in India: floral bait trap catches, Trials 1-5 (Example 2). The assay is classed as in vivo. The settings on record: Trial 1; for Total catches All Lepidoptera: Cotton; for Attractiveness to the non-target species recorded: species of Table 17. From the text:
(§1) In addition, five pheromone baited traps (baited with the pheromone of the key Helicoverpa and related spp.) were used as standards for each target species. Lures were changed every two to three weeks.
(§2) The choice of pheromone trap depended on local availability. In India, the preferred trap was the standard Pheromone Chemicals Ltd. plastic funnel trap, while in Bangladesh a plastic water trap was used. Pheromone lures for the trials were provided by NRI. In India and Bangladesh, H. armigera, Maruca vitrata, Earias vittella and Pectinophora gossypiella lures were provided.
(§3) The floral baits were provided in sealed lay-flat polyethylene sachets. The sachets were hung inside the traps in the same way as the pheromone lures. Traps were supported at crop height and the height was adjusted periodically to account for crop growth. Yellow-coloured traps were avoided in order to deter pollinators. Preferably, traps should be colourless or green-coloured. Trap covers were opaque. Where necessary, a killing agent was incorporated into each trap—to ensure insects were dead before opening the trap to count catches.
(§4) Trial 1 was designed to investigate the effect of altering the relative amount of the two main components, phenylacetaldhyde and salicylaldehyde on catch. The trial was laid out in cotton fields at four locations: Narakoduru and Jammikunta in Andhra Pradesh, India, and Shreepur and Jessore in Bangladesh.
In India, records were taken of all Lepidopterous species caught in the traps. The total Lepidoptera catches reflected the general trends in H. armigera catches. […] Thus blends containing between 3 and 30 percent salicylaldehyde relative to phenylacetaldehyde were on average the most attractive of the binary blends tested. […]

Assay [2] deals with H. armigera. As to the kind of experiment: Field trials in India and Bangladesh: floral bait trap catches, Trials 1-5 (Example 2). The assay is classed as in vivo, Helicoverpa armigera. The following applies: Trial 1; for Total catches H. armigera: Cotton.
From the text: as §1, §2, §3, §4
In Trial 2, the standard 5-component blend used in Example 1 (96/12) was compared to: Magnet® (96/10), Li et al. (2005) (96/11) and a binary blend of phenylacetaldehyde and salicylaldehyde (96/13).
In Trial 3, a third component was added to a roughly 70:30 blend of phenylacetaldehyde:salicylaldehyde, to assess whether the additional compound made the binary blend more attractive to nocturnal Lepidoptera. The compositions of the blends tested are shown in Table 11 and the results in Table 12.
In Trial 4, two compounds were added to a 70:30 blend of phenylacetaldehyde:salicylaldehyde, to assess whether the additional compounds made the binary blend more attractive to nocturnal Lepidoptera. The compositions of the blends tested are shown in Table 13 and the results in Table 14.
In Trial 5, the three compounds, methyl 2-methoxybenzoate, linalool and limonene were added to the binary 70:30 blend of phenylacetaldehyde:salicylaldehyde in two ratios, 1:1:1 and 1:1:0.5 at 3, 9, 30 and 90% w/w of the binary blend, to assess whether the additional compounds made the binary blend more attractive to nocturnal Lepidoptera. The compositions of the blends tested are shown in Table 15 and the results in Table 16.

Another assay has as its system Diaphania indica. Put plainly: Floral bait trap catches of non-target insects (Example 2). The settings on record: Trial 1; Narakoduru, Warangal District, AP, India; Cotton. It counts as in vivo.
From the text: as §1, §2, §3
(§5) In Tables 17 to 23 the total catches of selected Lepidoptera, Hymenoptera (Apis mellifera and Bombus spp.) and Diptera are shown.

In another assay the test system is Lampides boeticus. The description is as above. It counts as in vivo. The following applies: Trial 1; Narakoduru, Warangal District, AP, India; Cotton.
From the text: as §1, §2, §3, §5

For a further assay, the system named is Autographa gama. Described as above. The assay is classed as in vivo. The settings on record: Trial 1; Narakoduru, Warangal District, AP, India; Cotton.
From the text: as §1, §2, §3, §5

The next assay deals with Apis mellifera. The description is as above. The following applies: Trial 1; Narakoduru, Warangal District, AP, India; Cotton. The assay is classed as in vivo.
From the text: as §1, §2, §3, §5

The subject of a further assay is Parnara guttatus. The description is as above. The following applies: Trial 1; Narakoduru, Warangal District, AP, India; Cotton. The assay is classed as in vivo.
From the text: as §1, §2, §3, §5

The next assay relates to Other Lepidoptera. Described as above. The assay is classed as in vivo. The settings on record: Trial 1; Narakoduru, Warangal District, AP, India; Cotton.
From the text: as §1, §2, §3, §5

In another assay the test system is Spodoptera litura. Described as above. The settings on record: Trial 1; Narakoduru, Warangal District, AP, India; Cotton. The assay is classed as in vivo.
From the text: as §1, §2, §3, §5

Another assay relates to Diptera. The assay is described as above. It counts as in vivo. The following applies: Trial 1; Narakoduru, Warangal District, AP, India; Cotton.
From the text: as §1, §2, §3, §5

In the next assay the test system is Bombus spp. The assay is described as above. The settings on record: Trial 1; Narakoduru, Warangal District, AP, India; Cotton. It counts as in vivo.
From the text: as §1, §2, §3, §5

For assay [3], the system named is female Helicoverpa armigera. The settings on record: Pawar et al., 1993; cited from earlier work.
Assay [4] concerns H. armigera. Put plainly: Field trials in Bangladesh: trap catch with floral odour lures (Example 1). The assay is classed as in vivo, Helicoverpa armigera. The following applies: Table 1; increasing relative amount of minor components; adult H. armigera. As to the method: Lures were prepared from heat-sealed low density polyethylene sachets formed from ‘layflat plastic’ tubing. In early field work, the lures were prepared on site, with each lure comprising a single compound in a dose of 0.1 ml. The release rate of compounds from the polyethylene sachets is independent of the amount of material in the sachet and so a particular dosage affects longevity only. Longevity, in turn, is dependent on ambient temperature, with an increase of 7-10° C. leading to a doubling of the release rate. Water traps were placed at crop height and trap catches were taken as a crude measure of attractiveness to the compounds. As the compounds mimic ‘floral odours’ generally, they were not expected to be species-specific in their effect.
During testing, different combinations of floral odours, together with H. armigera pheromone, were used as attractants. The chemicals were put inside sealed plastic sachets (10×5 cm) and the sachets were hung inside traps prepared from clear plastic pots (19 cm height, 15 cm dia.) with two triangular holes (12 cm base, 9 cm height) at opposite sides. The traps were set at 1 m height with an inter-trap distance of 10 m. Insects that were trapped by the lures were collected, identified and recorded at weekly intervals.

Molecules are shown by their SMILES.

Consider `O=Cc1ccccc1O` [96/01, salicylaldehyde], for which the “Total catches H. armigera” value with H. armigera [1] was found to be 3; in the assay on H. armigera [2] (Jammikunta KVK) it was 0; with H. armigera [2] (Jessore), 16; in the assay with H. armigera [2] (Narakoduru, Guntur) it was 0; with H. armigera [2] (Shreepur), 1. Moreover, the “Total catches All Lepidoptera” value in the assay on All Lepidoptera (Jammikunta KVK) amounted to 3; in the assay on All Lepidoptera (Narakoduru, Guntur), 8. Further, the “Attractiveness to the non-target species recorded” value in the assay on All Lepidoptera is “unattractive”. Also, the “Attractiveness to H. armigera” value in the assay with H. armigera [2] was “attractive”. The “Total catches Diaphania indica” value with Diaphania indica is on record as 1. In addition, the “Total catches Lampides boeticus” value with Lampides boeticus came out at 0. Further, the “Total catches Autogr. gama” value with Autographa gama was 0. Further, the “Total catches Apis mellifera” value with Apis mellifera amounted to 10. For the same compound, the “Total catches Parnara guttat.” value with Parnara guttatus is 0. For the same compound, the “Total catches Other Lepidop.” value in the assay with Other Lepidoptera is given as 6. Moreover, the “Total catches Spodopt. litura” value in the assay on Spodoptera litura is on record as 1. For the same compound, in the assay with Diptera, the “Total catches Diptera” value is recorded as 1. Also, the “Total catches Bombus spp.” value in the assay with Bombus spp. is given as 0.

Take `O=CCc1ccccc1` [96/09, phenylacetaldehyde]: the “Total catches H. armigera” value is given as 0 in the assay with H. armigera [1]; 1 in the assay on H. armigera [2] (Jammikunta KVK); 30 with H. armigera [2] (Jessore); 1 in the assay on H. armigera [2] (Narakoduru, Guntur); 20 in the assay with H. armigera [2] (Shreepur). The “Total catches All Lepidoptera” value was determined as 15 in the assay with All Lepidoptera (Jammikunta KVK) and 94 with All Lepidoptera (Narakoduru, Guntur). In the assay on All Lepidoptera, the “Attractiveness to the non-target species recorded” value is listed as “attractive”. For the same compound, the “Total catches Diaphania indica” value with Diaphania indica is given as 13. The “Total catches Lampides boeticus” value in the assay with Lampides boeticus was 1. For the same compound, in the assay on Autographa gama, the “Total catches Autogr. gama” value is given as 12. For the same compound, in the assay with Apis mellifera, the “Total catches Apis mellifera” value worked out at 18. Also, the “Total catches Parnara guttat.” value in the assay on Parnara guttatus was 14. The “Total catches Other Lepidop.” value in the assay with Other Lepidoptera is on record as 67. In addition, the “Total catches Spodopt. litura” value in the assay on Spodoptera litura is on record as 1. In addition, the “Total catches Diptera” value in the assay with Diptera came out at 8. Besides, the “Total catches Bombus spp.” value with Bombus spp. worked out at 1. Also, the “Attraction of female Helicoverpa armigera” value in assay [3] was “strong attractant”. In the assay with H. armigera [4], the “H. armigera Catch” value was found to be 9.
